Assay results reported in PubChem BioAssay (NCI).
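48-hour exposure; five concentrations; linearly interpolated endpoints. GI50 = concentration required for 50% inhibition of growth. The concentration for full growth arrest is given as TGI.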

Assays:
Test in all cases: NCI-60 cell line screen, 48 h
RXF 393 renal = system: RXF 393 renal
SNB-75 CNS = system: SNB-75 CNS
SF-268 CNS = system: SF-268 CNS
SK-OV-3 ovarian = system: SK-OV-3 ovarian
SK-MEL-5 melanoma = system: SK-MEL-5 melanoma
PC-3 prostate = system: PC-3 prostate
OVCAR-3 ovarian = system: OVCAR-3 ovarian
MDA-N = system: MDA-N
UACC-62 melanoma = system: UACC-62 melanoma
NCI/ADR-RES ovarian = system: NCI/ADR-RES ovarian
HOP-62 NSCLC = system: HOP-62 NSCLC
HCT-116 colon = system: HCT-116 colon
HOP-92 NSCLC = system: HOP-92 NSCLC
SK-MEL-28 melanoma = system: SK-MEL-28 melanoma
MCF7 breast = system: MCF7 breast
RPMI-8226 leukemia = system: RPMI-8226 leukemia
DU-145 prostate = system: DU-145 prostate
U251 CNS = system: U251 CNS
UACC-257 melanoma = system: UACC-257 melanoma
EKVX NSCLC = system: EKVX NSCLC
CAKI-1 renal = system: CAKI-1 renal
MDA-MB-435 = system: MDA-MB-435
CCRF-CEM leukemia = system: CCRF-CEM leukemia
786-0 renal = system: 786-0 renal
OVCAR-8 ovarian = system: OVCAR-8 ovarian
OVCAR-4 ovarian = system: OVCAR-4 ovarian
A549 NSCLC = system: A549 NSCLC
M14 melanoma = system: M14 melanoma
A498 renal = system: A498 renal
OVCAR-5 ovarian = system: OVCAR-5 ovarian
SNB-19 CNS = system: SNB-19 CNS
HCT-15 colon = system: HCT-15 colon
LOX IMVI melanoma = system: LOX IMVI melanoma
HCC-2998 colon = system: HCC-2998 colon
UO-31 renal = system: UO-31 renal
MDA-MB-231 breast = system: MDA-MB-231 breast
SF-295 CNS = system: SF-295 CNS
SN12C renal = system: SN12C renal
SF-539 CNS = system: SF-539 CNS
T-47D breast = system: T-47D breast
K-562 leukemia = system: K-562 leukemia
COLO 205 colon = system: COLO 205 colon
KM12 colon = system: KM12 colon
HS 578T breast = system: HS 578T breast
SK-MEL-2 melanoma = system: SK-MEL-2 melanoma
NCI-H226 lung = system: NCI-H226 lung
TK-10 renal = system: TK-10 renal
SW-620 colon = system: SW-620 colon
ACHN renal = system: ACHN renal
MALME-3M melanoma = system: MALME-3M melanoma
NCI-H522 lung = system: NCI-H522 lung
NCI-H460 lung = system: NCI-H460 lung
BT-549 breast = system: BT-549 breast
MOLT-4 leukemia = system: MOLT-4 leukemia
HT29 colon = system: HT29 colon
IGROV1 ovarian = system: IGROV1 ovarian
HL-60(TB) leukemia = system: HL-60(TB) leukemia
SR leukemia = system: SR leukemia
NCI-H23 lung = system: NCI-H23 lung

**Q.** What does the source list for COc1cccc([C@@H]2CC(=O)c3cc4c(cc3N2)OCO4)c1?
**A.** TGI (RXF 393 renal): > 100 µM; TGI (SNB-75 CNS): > 100 µM; TGI (SF-268 CNS): > 100 µM; TGI (SK-OV-3 ovarian): > 100 µM; TGI (SK-MEL-5 melanoma): > 100 µM; TGI (PC-3 prostate): > 100 µM; TGI (OVCAR-3 ovarian): > 100 µM; TGI (MDA-N): > 100 µM; TGI (UACC-62 melanoma): > 100 µM; TGI (NCI/ADR-RES ovarian): > 100 µM; TGI (HOP-62 NSCLC): > 100 µM; TGI (HCT-116 colon): > 100 µM; TGI (HOP-92 NSCLC): > 100 µM; TGI (SK-MEL-28 melanoma): > 100 µM; TGI (MCF7 breast): > 100 µM; TGI (RPMI-8226 leukemia): > 100 µM; TGI (DU-145 prostate): > 100 µM; TGI (U251 CNS): > 100 µM; TGI (UACC-257 melanoma): > 100 µM; TGI (EKVX NSCLC): > 100 µM; TGI (CAKI-1 renal): > 100 µM; TGI (MDA-MB-435): > 100 µM; TGI (CCRF-CEM leukemia): > 100 µM; TGI (786-0 renal): > 100 µM; TGI (OVCAR-8 ovarian): > 100 µM; TGI (OVCAR-4 ovarian): > 100 µM; TGI (A549 NSCLC): > 100 µM; TGI (M14 melanoma): > 100 µM; TGI (A498 renal): > 100 µM; TGI (OVCAR-5 ovarian): > 100 µM; TGI (SNB-19 CNS): > 100 µM; TGI (HCT-15 colon): > 100 µM; TGI (LOX IMVI melanoma): > 100 µM; TGI (HCC-2998 colon): > 100 µM; TGI (UO-31 renal): > 100 µM; TGI (MDA-MB-231 breast): > 100 µM; TGI (SF-295 CNS): > 100 µM; TGI (SN12C renal): > 100 µM; TGI (SF-539 CNS): > 100 µM; TGI (T-47D breast): > 100 µM; TGI (K-562 leukemia): > 100 µM; TGI (COLO 205 colon): > 100 µM; TGI (KM12 colon): > 100 µM; TGI (HS 578T breast): > 100 µM; TGI (SK-MEL-2 melanoma): > 100 µM; TGI (NCI-H226 lung): > 100 µM; TGI (TK-10 renal): > 100 µM; TGI (SW-620 colon): > 100 µM; TGI (ACHN renal): > 100 µM

**Q.** What does the source list for CNC(=O)c1cc(Oc2ccc3nc(N[C@@H]4CCCC[C@H]4O)sc3c2)ccn1?
**A.** GI50 (MALME-3M melanoma): 28.6 µM; TGI (MALME-3M melanoma): 99.2 µM; GI50 (RXF 393 renal): > 100 µM; TGI (RXF 393 renal): > 100 µM; GI50 (SNB-75 CNS): 31.3 µM; TGI (SNB-75 CNS): > 100 µM; GI50 (SF-268 CNS): 68 µM; TGI (SF-268 CNS): > 100 µM; GI50 (SK-OV-3 ovarian): > 100 µM; TGI (SK-OV-3 ovarian): > 100 µM; GI50 (NCI-H522 lung): > 76.7 µM; TGI (NCI-H522 lung): > 100 µM; GI50 (SK-MEL-5 melanoma): 18.1 µM; TGI (SK-MEL-5 melanoma): 38.1 µM; GI50 (PC-3 prostate): 33.7 µM; TGI (PC-3 prostate): > 100 µM; GI50 (OVCAR-3 ovarian): 45.2 µM; TGI (OVCAR-3 ovarian): > 100 µM; GI50 (UACC-62 melanoma): 49.9 µM; TGI (UACC-62 melanoma): > 100 µM; GI50 (NCI/ADR-RES ovarian): 49.2 µM; TGI (NCI/ADR-RES ovarian): > 100 µM; GI50 (HOP-62 NSCLC): > 67.3 µM; TGI (HOP-62 NSCLC): > 100 µM; GI50 (HCT-116 colon): 49.1 µM; TGI (HCT-116 colon): > 100 µM; GI50 (HOP-92 NSCLC): 31.9 µM; TGI (HOP-92 NSCLC): > 100 µM; GI50 (NCI-H460 lung): 53.4 µM; TGI (NCI-H460 lung): > 100 µM; GI50 (BT-549 breast): 31.8 µM; TGI (BT-549 breast): > 100 µM; GI50 (SK-MEL-28 melanoma): 63.3 µM; TGI (SK-MEL-28 melanoma): > 100 µM; GI50 (MCF7 breast): 36.6 µM; TGI (MCF7 breast): > 100 µM; GI50 (RPMI-8226 leukemia): > 54.1 µM; TGI (RPMI-8226 leukemia): > 100 µM; GI50 (DU-145 prostate): 71.8 µM; TGI (DU-145 prostate): > 100 µM; GI50 (U251 CNS): 50.1 µM; TGI (U251 CNS): > 100 µM; GI50 (UACC-257 melanoma): 37.2 µM; TGI (UACC-257 melanoma): > 100 µM; GI50 (EKVX NSCLC): 38.2 µM; TGI (EKVX NSCLC): > 100 µM; GI50 (CAKI-1 renal): 44.9 µM; TGI (CAKI-1 renal): > 100 µM; GI50 (MDA-MB-435): 32.6 µM; TGI (MDA-MB-435): > 100 µM; GI50 (CCRF-CEM leukemia): 43.1 µM; TGI (CCRF-CEM leukemia): > 100 µM; GI50 (MOLT-4 leukemia): 32.8 µM; TGI (MOLT-4 leukemia): > 100 µM; GI50 (786-0 renal): > 90.9 µM; TGI (786-0 renal): > 100 µM; GI50 (OVCAR-8 ovarian): 69.4 µM; TGI (OVCAR-8 ovarian): > 100 µM; GI50 (OVCAR-4 ovarian): 31.2 µM; TGI (OVCAR-4 ovarian): > 100 µM; GI50 (A549 NSCLC): 62.5 µM; TGI (A549 NSCLC): > 100 µM; GI50 (M14 melanoma): 36.7 µM; TGI (M14 melanoma): > 100 µM; GI50 (A498 renal): > 40.5 µM; TGI (A498 renal): > 100 µM; GI50 (HT29 colon): 97.8 µM; TGI (HT29 colon): > 100 µM; GI50 (OVCAR-5 ovarian): > 100 µM; TGI (OVCAR-5 ovarian): > 100 µM; GI50 (SNB-19 CNS): > 100 µM; TGI (SNB-19 CNS): > 100 µM; GI50 (IGROV1 ovarian): > 77.2 µM; TGI (IGROV1 ovarian): > 100 µM; GI50 (HCT-15 colon): 38.1 µM; TGI (HCT-15 colon): > 100 µM; GI50 (HL-60(TB) leukemia): 62.5 µM; TGI (HL-60(TB) leukemia): > 100 µM; GI50 (LOX IMVI melanoma): 58.4 µM; TGI (LOX IMVI melanoma): > 100 µM; GI50 (HCC-2998 colon): > 100 µM; TGI (HCC-2998 colon): > 100 µM; GI50 (UO-31 renal): 33.5 µM; TGI (UO-31 renal): > 100 µM; GI50 (MDA-MB-231 breast): 82.2 µM; TGI (MDA-MB-231 breast): > 100 µM; GI50 (SR leukemia): 40 µM; TGI (SR leukemia): > 100 µM; GI50 (SF-295 CNS): 31.6 µM; TGI (SF-295 CNS): > 100 µM; GI50 (SN12C renal): > 100 µM; TGI (SN12C renal): > 100 µM; GI50 (SF-539 CNS): 36.3 µM; TGI (SF-539 CNS): > 100 µM; GI50 (NCI-H23 lung): 59.3 µM; TGI (NCI-H23 lung): > 100 µM; GI50 (T-47D breast): 21.1 µM; TGI (T-47D breast): > 100 µM; GI50 (K-562 leukemia): 43.7 µM; TGI (K-562 leukemia): > 100 µM; GI50 (COLO 205 colon): 59.8 µM; TGI (COLO 205 colon): > 100 µM; GI50 (KM12 colon): 66.3 µM; TGI (KM12 colon): > 100 µM; GI50 (HS 578T breast): > 69.9 µM; TGI (HS 578T breast): > 100 µM; GI50 (SK-MEL-2 melanoma): > 87.8 µM; TGI (SK-MEL-2 melanoma): > 100 µM; GI50 (NCI-H226 lung): 61.9 µM; TGI (NCI-H226 lung): > 100 µM; GI50 (TK-10 renal): > 100 µM; TGI (TK-10 renal): > 100 µM; GI50 (SW-620 colon): > 100 µM; TGI (SW-620 colon): > 100 µM; GI50 (ACHN renal): 55.8 µM; TGI (ACHN renal): > 100 µM
